Measured values reported in patent US11058673B2, “Dosage regimen of MDM2 inhibitor for treating cancers” (DAIICHI SANKYO COMPANY, LIMITED, priority 2015, dated 2021).
Like-named read-outs stand apart in the source and are kept apart here.

What was measured:
[1] = tested on: Liposarcoma; assay: Phase 1 clinical study: progression free survival, liposarcoma subjects; type: in vivo, human; conditions: Liposarcoma (N = 13)
Description: (§1) • 1. Has a histologically or cytologically documented advanced solid tumor or lymphoma that has relapsed from or is refractory to standard treatment, or for which no standard treatment is available. • 2. Man or woman≥18 years old. • 3. Has an Eastern Cooperative Oncology Group (ECOG) performance status 0-1. • 4. Has adequate bone marrow function, adequate renal function, adequate hepatic function, and adequate blood clotting function.
(§2) Tumor assessment Tumor assessment was performed at baseline, within every 2 cycles while the subject remained on study for the first 9 cycles and then every 3 cycles thereafter (start of Cycles 3, 5, 7, and 9, then Cycles 12, 15, etc.).
(§3) Tumor Response Response assessment was performed according to the Schedule of Events or if disease progression was suspected. Radiographic assessment included computerized tomography (CT) of all affected sites. In addition, subjects with lymphoma underwent a (^18F) fluorodeoxyglucose-positron emission tomography FDG-PET scan. Tumor responses were assessed by the physicians according to RECIST 1.1 criteria for subjects with solid tumors and revised IWG criteria for subjects with lymphoma. Descriptive statistics for the greatest percent change in the sum of longest dimensions (SLD) of measurable tumors were provided. A waterfall plot of the greatest percent change from screening in the SLD for each subject was presented for subjects with advanced solid malignancies and lymphomas. In addition, descriptive statistics for FDG-PET scans were provided for lymphoma subjects according to revised IWG criteria.

[2] = tested on: advanced solid tumor or lymphoma; assay: Phase 1 clinical study: tumor response (RECIST v1.1) and progression free survival, overall population; type: in vivo, human
Description: as §1, §2, §3

[3] = tested on: Non-Liposarcoma; assay: Phase 1 clinical study: progression free survival, non-liposarcoma subjects; type: in vivo, human; conditions: Non-Liposarcoma (N = 14)
Description: as §1, §2, §3

[4] = Highest Non-Severely Toxic Dose in dogs; type: in vivo
Description: (§4) Dosage regimen Compound 2 was administered as an oral capsule comprising a pharmaceutically acceptable carrier (diluting agent, plasticizer, disintegrator and lubricant). Compound 2 was administered to the subjects once daily on Days 1 to 21 of a 28-day cycle (QD21/28). An alternative drug administration schedule was considered after establishing the maximum tolerated dose (MTD) of Compound 2 in solid tumor and/or lymphoma subjects using the above schedule, and upon review of the human safety. Subjects were administered Compound 2 in fasting conditions by avoiding food for 2 hours before and 1 hour after drug administration. Dose-escalation of Compound 2 to determine the MTD was guided by the modified continuous reassessment method (mCRM) using a Bayesian logistic regression model (BLRM) following escalation with overdose control (EWOC) principle. Dose escalation began in subjects with advanced solid tumors or lymphomas with a starting dose of Compound 2 at 15 mg/day based on the Highest Non-Severely Toxic Dose (HNSTD) of 3 mg/kg in dogs.

[5] = type: in vivo, human; conditions: for maximum tolerated dose (MTD): oral
Description: as §4
Dose Limiting Toxicity Definition A DLT was defined as any treatment-emergent adverse event (TEAE) not attributable to disease or disease-related processes that occurred during the observation period (Cycle 1) in each dose-level cohort and was grade 3 or higher according to NCI CTCAE, version 4. Subjects who were unable to complete at least 75% of the prescribed doses (i.e., 16 days) of Compound 2 in the first 21 days as a result of nondisease-related≥grade 2 adverse event (AE) were considered to have a DLT.
Treatment Arms In this open-label, single-arm, dose escalation study, each subject received Compound 2 orally once daily on Days 1 to 21 of a 28-day cycle.
Safety Parameters The safety profile was based on AEs, physical examination findings, vital sign measurements, clinical laboratory measurements, and ECG recordings. All subjects receiving at least 1 dose of Compound 2 were included in the safety analyses.

[6] = Overall (N = 27), Kaplan-Meier estimate

## CC1(C)CCC2(CC1)N[C@@H](C(=O)N[C@@H]1CC[C@@H](C(N)=O)OC1)[C@H](c1ccnc(Cl)c1F)[C@]21C(=O)Nc2cc(Cl)ccc21.Cc1ccc(S(=O)(=O)O)cc1 [Compound 2, (3′R,4′S,5′R)—N-[(3R,6S)-6-carbamoyltetrahydro-2H-pyran-3-yl]-6″-chloro-4′-(2-chloro-3-fluoropyridin-4-yl)-4,4-dimethyl-2″-oxo-1″,2″-dihydrodispiro[cyclohexane-1,2′-pyrrolidine-3′,3″-indole]-5′-carboxamide mono(4-methylbenzenesulfonate) monohydrate]
[1]
  Subjects without Events (Censored) (%): (76.9) %
[1]; Kaplan-Meier estimate
  Rate (%) of Being Alive Without Progresion at Least 3 months: 91.7%
  Rate (%) of Being Alive Without Progresion at Least 6 months: 76.4%
  Rate (%) of Being Alive Without Progresion at Least 9 months: 57.3%
  Rate (%) of Being Alive Without Progresion at Least 12 months: 57.3%
[1]; PFS events
  Subjects with Events (%): (23.1) %
[2]; Overall (N = 27)
  Subjects without Events (Censored) (%): (55.6) %
[2]; [6]
  Progression-Free Survival, Median: 5.72 months
  Rate (%) of Being Alive Without Progresion at Least 3 months: 74.5%
  Rate (%) of Being Alive Without Progresion at Least 6 months: 47.4%
  Rate (%) of Being Alive Without Progresion at Least 9 months: 29.7%
  Rate (%) of Being Alive Without Progresion at Least 12 months: 29.7%
[2]; PFS events, Overall (N = 27)
  Subjects with Events (%): (44.4) %
[2]; RECIST v1.1, out of 23 evaluable subjects
  subjects with stable disease (SD) as the best tumor response: 21 subjects
[2]; of 23 evaluable subjects
  subjects with >10% tumor shrinkage: 3 subjects
[3]
  Subjects without Events (Censored) (%): (35.7) %
[3]; Kaplan-Meier estimate
  Progression-Free Survival, Median: 4.04 months
  Rate (%) of Being Alive Without Progresion at Least 3 months: 58.4%
  Rate (%) of Being Alive Without Progresion at Least 6 months: 23.4%
  Rate (%) of Being Alive Without Progresion at Least 9 months: 11.7%
  Rate (%) of Being Alive Without Progresion at Least 12 months: 11.7%
[3]; PFS events
  Subjects with Events (%): (64.3) %
[4]
  Highest Non-Severely Toxic Dose (HNSTD): 3 mg/kg
[5]; human, in vivo
  TEAE anemia: 38.2%
  TEAE constipation: 23.5
  TEAE decreased appetite: 50.0%
  TEAE diarrhea: 35.3%
  TEAE dysgeusia: 20.6%
  TEAE dyspnoea: 26.5%
  TEAE fatigue: 52.9%
  TEAE grade 3 or higher in severity: 55.9%
  TEAE hyperglycemia: 29.4%
  TEAE hypoalbuminemia: 32.4%
  TEAE nausea: 64.7%
  TEAE neutropenia: 17.6%
  TEAE peripheral edema: 17.6%
  TEAE thrombocytopenia: 32.4%
  TEAE vomiting: 35.3%
  Treatment emergent adverse events (TEAE) of any grade at any treatment cycle irrespective of causality: 97.1%
  most common drug-related TEAEs: hematological (thrombocytopenia, anemia, neutropenia), gastrointestinal (nausea, vomiting and diarrhea), and fatigue
  total subjects who experienced DLTs: 6 subjects
[5]; QD 21/28 schedule
  maximum tolerated dose (MTD): 120 mg
[5]; QD 28/28 schedule
  maximum tolerated dose (MTD): 90 mg
[5]; patients with hematological malignancies
  dose tolerated: 160 mg
